# Assay results taken from doi:10.1101/2022.03.12.484055v1 (biorxiv, 2022).
# Molecular target: T1, ASIC1 (hASIC1; ASIC1a as primary isoform in tsA-201 cells) (Homo sapiens, UniProt P78348)
# T1 sequence (P78348 1-528): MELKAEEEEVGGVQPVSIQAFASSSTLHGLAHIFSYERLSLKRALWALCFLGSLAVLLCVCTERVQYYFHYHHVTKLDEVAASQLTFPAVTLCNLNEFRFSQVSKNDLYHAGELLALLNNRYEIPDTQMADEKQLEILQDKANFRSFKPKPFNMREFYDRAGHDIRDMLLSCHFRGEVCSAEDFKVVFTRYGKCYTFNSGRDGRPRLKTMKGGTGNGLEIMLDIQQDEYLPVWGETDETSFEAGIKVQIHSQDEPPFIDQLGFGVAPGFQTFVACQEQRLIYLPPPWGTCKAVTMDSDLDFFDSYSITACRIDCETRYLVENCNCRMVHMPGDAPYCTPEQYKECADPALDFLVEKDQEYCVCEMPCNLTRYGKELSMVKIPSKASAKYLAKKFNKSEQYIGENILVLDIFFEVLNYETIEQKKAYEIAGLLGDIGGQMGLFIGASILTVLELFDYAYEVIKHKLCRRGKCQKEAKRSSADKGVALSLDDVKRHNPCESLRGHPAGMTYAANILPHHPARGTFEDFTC
# Assay: automated patch clamp, single concentration
# Assay type: cell-based
# Conditions: tsA201, read-out: % inhibition @ 30 µM
row,Compound,inhibition at 30 µM [%]
1,"N=C(N)NC(=O)c1nc(-c2cc3cc(F)ccc3o2)c(N)nc1N [compound 23, 23]",82 ± 1
2,"COc1ccc2oc(-c3nc(C(=O)NC(=N)N)c(N)nc3N)cc2c1 [compound 29, 29]",82 ± 1
3,"N=C(N)NC(=O)c1nc(-c2cc3cc(F)cc(F)c3o2)c(N)nc1N [compound 35, 35]",76 ± 3
